These results are taken from US9266878B2, “Phosphatidylinositol 3-kinase inhibitors” (Gilead Calistoga LLC, priority 2012, dated 2016).

A word on the IC50: it is the concentration that gives 50% inhibition. Low values mean higher potency, high ones lower potency.

Holding throughout (assay): Enzymatic activity of PI3K isoforms, TR-FRET assay (PIP3 formation)
What all share (type): biochemical
(TR-FRET usually uses a lanthanide donor and a delayed reading to cut background.)

One assay has as its target PI3Kα (Homo sapiens (Human), UniProt P42336). As to conditions: bound given in uM. A digest of the protocol:
(§1)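 After 30 min at 25° C, reactions were quenched with 10 mM EDTA plus 10 nM labeled-PIP3 and 35 nM Europium-GRP-1, and TR-FRET was read (Ex 340, Em 615/665 nm). Enzymes were purified recombinant heterodimers; product PIP3 competes off the labeled tracer. Values given as IC50, nM.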

In the next assay the target is PI3Kδ (Homo sapiens (Human), UniProt O00329). The settings on record: bound given in nM. A digest of the protocol: as §1
A further assay has as its target PI3Kβ (Homo sapiens (Human), UniProt P42338). The settings on record: bound given in uM. The essentials:
(§2)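 IC50 (nM) reflects inhibition of PIP3 formation by purified recombinant heterodimeric PI3K, measured as loss of TR-FRET signal. The read-out comes from competition between enzyme-made PIP3 and labelled PIP3 for binding to the GRP-1 pleckstrin homology domain.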

A further assay deals with PI3Kγ (Homo sapiens (Human), UniProt P48736). The settings on record: bound given in uM. The essentials:
as §2

Structures are written as SMILES.

PI3Kγ, sequence (P48736 whole entry): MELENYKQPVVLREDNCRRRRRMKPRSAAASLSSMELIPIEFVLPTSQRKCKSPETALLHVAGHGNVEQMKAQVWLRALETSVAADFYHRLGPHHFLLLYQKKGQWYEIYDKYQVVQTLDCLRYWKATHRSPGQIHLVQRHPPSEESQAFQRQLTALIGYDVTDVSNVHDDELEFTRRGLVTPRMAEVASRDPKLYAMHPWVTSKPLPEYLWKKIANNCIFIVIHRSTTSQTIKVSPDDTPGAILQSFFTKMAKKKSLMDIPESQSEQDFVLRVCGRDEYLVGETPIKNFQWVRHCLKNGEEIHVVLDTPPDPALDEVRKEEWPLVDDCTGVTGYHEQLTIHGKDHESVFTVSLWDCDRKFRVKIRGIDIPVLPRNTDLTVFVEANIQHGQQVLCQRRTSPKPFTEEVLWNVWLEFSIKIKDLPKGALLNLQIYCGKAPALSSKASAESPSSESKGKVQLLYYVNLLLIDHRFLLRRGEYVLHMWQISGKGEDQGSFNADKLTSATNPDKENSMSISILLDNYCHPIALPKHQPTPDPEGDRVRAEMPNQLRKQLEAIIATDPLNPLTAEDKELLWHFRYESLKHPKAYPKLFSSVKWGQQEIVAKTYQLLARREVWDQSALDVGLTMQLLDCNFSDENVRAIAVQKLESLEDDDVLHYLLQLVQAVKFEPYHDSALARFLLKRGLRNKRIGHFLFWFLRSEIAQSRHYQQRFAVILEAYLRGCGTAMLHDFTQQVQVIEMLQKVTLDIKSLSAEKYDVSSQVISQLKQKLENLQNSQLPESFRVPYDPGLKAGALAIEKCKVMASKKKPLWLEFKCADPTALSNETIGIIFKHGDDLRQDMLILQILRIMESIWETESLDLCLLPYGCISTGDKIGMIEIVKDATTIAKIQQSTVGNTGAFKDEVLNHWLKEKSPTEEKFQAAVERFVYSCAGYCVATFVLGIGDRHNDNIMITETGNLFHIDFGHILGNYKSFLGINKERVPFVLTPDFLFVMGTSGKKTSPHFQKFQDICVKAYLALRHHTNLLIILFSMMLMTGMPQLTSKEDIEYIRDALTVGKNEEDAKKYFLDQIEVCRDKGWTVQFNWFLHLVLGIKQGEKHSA
PI3Kγ, sequence (Q8WYR1 whole entry partner): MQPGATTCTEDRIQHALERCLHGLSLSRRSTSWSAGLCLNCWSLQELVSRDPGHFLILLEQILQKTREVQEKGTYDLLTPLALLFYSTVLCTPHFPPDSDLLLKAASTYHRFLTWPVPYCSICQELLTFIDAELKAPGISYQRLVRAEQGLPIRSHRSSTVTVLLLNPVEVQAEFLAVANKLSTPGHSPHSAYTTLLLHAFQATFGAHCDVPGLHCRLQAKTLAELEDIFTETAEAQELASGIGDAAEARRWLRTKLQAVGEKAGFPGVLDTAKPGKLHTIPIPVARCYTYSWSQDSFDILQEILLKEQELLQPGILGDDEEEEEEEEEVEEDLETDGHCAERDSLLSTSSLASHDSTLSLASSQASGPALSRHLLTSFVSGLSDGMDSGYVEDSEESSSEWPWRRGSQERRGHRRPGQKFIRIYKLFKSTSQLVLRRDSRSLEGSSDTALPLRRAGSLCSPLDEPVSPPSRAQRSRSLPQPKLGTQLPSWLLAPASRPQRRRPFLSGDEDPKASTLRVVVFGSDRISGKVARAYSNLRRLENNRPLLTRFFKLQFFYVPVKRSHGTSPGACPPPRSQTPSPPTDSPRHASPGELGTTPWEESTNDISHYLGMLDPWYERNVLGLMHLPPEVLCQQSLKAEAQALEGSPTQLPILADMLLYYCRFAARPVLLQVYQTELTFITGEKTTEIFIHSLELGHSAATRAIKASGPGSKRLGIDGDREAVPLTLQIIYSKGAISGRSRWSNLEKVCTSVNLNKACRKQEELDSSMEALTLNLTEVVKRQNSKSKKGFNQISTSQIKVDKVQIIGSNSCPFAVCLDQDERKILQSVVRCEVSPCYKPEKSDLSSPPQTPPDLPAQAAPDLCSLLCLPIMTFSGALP
PI3Kα, sequence (P42336 whole entry): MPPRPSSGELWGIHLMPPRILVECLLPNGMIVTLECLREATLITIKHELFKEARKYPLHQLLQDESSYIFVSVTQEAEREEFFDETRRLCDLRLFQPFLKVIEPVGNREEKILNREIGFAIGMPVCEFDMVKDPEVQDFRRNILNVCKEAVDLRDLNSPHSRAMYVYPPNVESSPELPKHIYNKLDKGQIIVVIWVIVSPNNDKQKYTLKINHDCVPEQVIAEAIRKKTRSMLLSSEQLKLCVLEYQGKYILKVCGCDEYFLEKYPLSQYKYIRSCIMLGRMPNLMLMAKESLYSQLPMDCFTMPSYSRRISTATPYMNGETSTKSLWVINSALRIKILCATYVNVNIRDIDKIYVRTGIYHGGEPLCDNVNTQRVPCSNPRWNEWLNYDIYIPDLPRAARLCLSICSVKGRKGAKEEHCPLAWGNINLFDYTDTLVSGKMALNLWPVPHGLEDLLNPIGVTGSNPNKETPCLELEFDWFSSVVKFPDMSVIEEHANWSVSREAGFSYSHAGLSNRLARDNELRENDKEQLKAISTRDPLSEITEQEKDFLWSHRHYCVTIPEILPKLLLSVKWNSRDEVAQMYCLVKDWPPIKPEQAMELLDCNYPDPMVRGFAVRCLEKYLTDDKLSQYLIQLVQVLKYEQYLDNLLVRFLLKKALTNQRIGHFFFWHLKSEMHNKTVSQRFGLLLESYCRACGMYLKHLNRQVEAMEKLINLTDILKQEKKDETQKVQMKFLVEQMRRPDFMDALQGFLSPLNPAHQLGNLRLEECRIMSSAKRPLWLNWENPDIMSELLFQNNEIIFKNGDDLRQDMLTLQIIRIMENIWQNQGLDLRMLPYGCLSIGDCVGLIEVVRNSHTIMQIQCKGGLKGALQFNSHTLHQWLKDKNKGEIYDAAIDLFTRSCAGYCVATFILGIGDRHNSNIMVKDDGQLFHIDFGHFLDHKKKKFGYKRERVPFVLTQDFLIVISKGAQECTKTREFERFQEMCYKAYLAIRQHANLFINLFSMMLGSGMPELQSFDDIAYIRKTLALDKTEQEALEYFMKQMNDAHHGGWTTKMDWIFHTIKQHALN
PI3Kα, sequence (P27986 whole entry partner): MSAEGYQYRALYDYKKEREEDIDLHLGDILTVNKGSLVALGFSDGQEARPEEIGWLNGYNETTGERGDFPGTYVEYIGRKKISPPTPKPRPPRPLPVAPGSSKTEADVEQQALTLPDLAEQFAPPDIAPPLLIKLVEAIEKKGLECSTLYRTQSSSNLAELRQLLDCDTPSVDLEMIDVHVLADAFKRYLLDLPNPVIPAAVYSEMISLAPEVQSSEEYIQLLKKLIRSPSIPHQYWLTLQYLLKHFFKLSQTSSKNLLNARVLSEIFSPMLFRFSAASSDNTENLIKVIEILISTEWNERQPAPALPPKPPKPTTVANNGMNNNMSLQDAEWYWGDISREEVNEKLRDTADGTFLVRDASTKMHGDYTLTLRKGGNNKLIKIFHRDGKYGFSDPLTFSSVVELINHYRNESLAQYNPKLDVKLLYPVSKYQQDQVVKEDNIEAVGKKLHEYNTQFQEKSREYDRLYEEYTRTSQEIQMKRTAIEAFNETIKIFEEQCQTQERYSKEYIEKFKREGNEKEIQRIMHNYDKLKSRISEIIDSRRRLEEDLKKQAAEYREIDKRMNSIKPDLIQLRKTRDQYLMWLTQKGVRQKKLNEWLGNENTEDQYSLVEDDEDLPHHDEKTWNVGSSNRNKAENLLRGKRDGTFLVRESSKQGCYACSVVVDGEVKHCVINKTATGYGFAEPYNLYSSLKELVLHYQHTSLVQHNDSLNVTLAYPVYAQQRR
PI3Kβ, sequence (P42338 whole entry, the tested form may be a part): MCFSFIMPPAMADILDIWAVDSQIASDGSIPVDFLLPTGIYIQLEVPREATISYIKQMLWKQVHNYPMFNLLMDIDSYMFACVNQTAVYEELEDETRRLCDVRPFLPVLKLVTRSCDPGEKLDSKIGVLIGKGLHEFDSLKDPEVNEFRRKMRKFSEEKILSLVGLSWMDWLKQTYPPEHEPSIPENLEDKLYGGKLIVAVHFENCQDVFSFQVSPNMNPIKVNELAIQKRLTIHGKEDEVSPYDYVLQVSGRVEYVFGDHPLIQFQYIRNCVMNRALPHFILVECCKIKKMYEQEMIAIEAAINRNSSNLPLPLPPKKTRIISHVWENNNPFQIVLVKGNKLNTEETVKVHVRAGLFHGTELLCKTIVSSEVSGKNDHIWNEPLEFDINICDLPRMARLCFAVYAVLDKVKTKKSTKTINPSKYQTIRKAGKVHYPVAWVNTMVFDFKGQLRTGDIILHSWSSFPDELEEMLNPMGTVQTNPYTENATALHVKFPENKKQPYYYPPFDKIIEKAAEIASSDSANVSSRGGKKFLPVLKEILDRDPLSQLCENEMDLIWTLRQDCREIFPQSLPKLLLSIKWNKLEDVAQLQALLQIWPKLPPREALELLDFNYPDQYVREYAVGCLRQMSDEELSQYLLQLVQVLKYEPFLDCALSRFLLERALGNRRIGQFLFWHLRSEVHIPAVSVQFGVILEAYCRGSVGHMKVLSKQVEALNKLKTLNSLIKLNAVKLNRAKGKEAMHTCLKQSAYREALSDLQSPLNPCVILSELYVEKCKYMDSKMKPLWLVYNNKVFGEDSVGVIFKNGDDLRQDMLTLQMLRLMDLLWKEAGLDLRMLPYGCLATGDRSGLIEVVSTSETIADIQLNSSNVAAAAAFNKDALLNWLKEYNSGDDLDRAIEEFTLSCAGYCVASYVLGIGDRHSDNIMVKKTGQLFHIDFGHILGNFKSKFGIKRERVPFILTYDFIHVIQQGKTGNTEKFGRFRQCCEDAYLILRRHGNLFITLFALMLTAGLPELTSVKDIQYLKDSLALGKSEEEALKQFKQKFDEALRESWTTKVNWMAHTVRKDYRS
PI3Kβ, sequence (P27986 whole entry partner, the tested form may be a part): as the sequence (P27986 whole entry partner) above

For `C[C@H](Nc1ncnc(N)c1C#C[C@@H](C)O)c1nc2cccc(Cl)c2c(=O)n1-c1ccccc1` [Compound 19a, 2-((S)-1-(6-amino-5-((R)-3-hydroxybut-1-ynyl)pyrimidin-4-ylamino)ethyl)-5-chloro-3-phenylquinazolin-4(3H)-one], the IC50 against PI3Kα is more than 1 µM; against PI3Kδ, less than 100 nM; against PI3Kβ, more than 1 µM; on PI3Kγ, more than 1 µM.
Regarding `C[C@H](Nc1ncnc(N)c1C#CC(C)(C)O)c1nc2cccc(Cl)c2c(=O)n1-c1cc(F)cc(F)c1` [Compound 28a, (S)-2-(1-(6-amino-5-(3-hydroxy-3-methylbut-1-ynyl)pyrimidin-4-ylamino)ethyl)-5-chloro-3-(3,5-difluorophenyl)quinazolin-4(3H)-one], the IC50 at PI3Kα was more than 1 µM; against PI3Kδ, less than 100 nM; against PI3Kβ, more than 1 µM; at PI3Kγ, more than 1 µM.
`COc1cc(F)cc(C#Cc2c(N)ncnc2N[C@@H](C)c2nc3c(F)cccc3c(=O)n2-c2ccccc2)c1` [Compound 64a, (S)-2-(1-((6-amino-5-((3-fluoro-5-methoxyphenyl)ethynyl)pyrimidin-4-yl)amino)ethyl)-8-fluoro-3-phenylquinazolin-4(3H)-one]: the IC50 against PI3Kα was more than 1 µM; against PI3Kδ, less than 100 nM; against PI3Kβ, more than 1 µM; on PI3Kγ, more than 1 µM.
Take `C[C@H](Nc1ncnc(N)c1C#Cc1cnccn1)c1nc2cccc(C(F)F)c2c(=O)n1-c1cccc(C#N)c1` [Compound 71a, (S)-3-(2-(1-((6-amino-5-(pyrazin-2-ylethynyl)pyrimidin-4-yl)amino)ethyl)-5-(difluoromethyl)-4-oxoquinazolin-3(4H)-yl)benzonitrile]: the IC50 on PI3Kα was more than 1 µM; against PI3Kδ, less than 100 nM; against PI3Kβ, more than 1 µM; on PI3Kγ, more than 1 µM.
Take `C[C@H](Nc1ncnc(N)c1C#Cc1cnccn1)c1nc2cccc(C(F)F)c2c(=O)n1-c1cc(F)cc(F)c1` [Compound 66a, (S)-2-(1-((6-amino-5-(pyrazin-2-ylethynyl)pyrimidin-4-yl)amino)ethyl)-5-(difluoromethyl)-3-(3,5-difluorophenyl)quinazolin-4(3H)-one]: the IC50 is more than 1 µM on PI3Kα, less than 100 nM on PI3Kδ, more than 1 µM against PI3Kβ and more than 1 µM against PI3Kγ.
For `C[C@H](Nc1ncnc(N)c1C#Cc1ccc(F)cn1)c1nc2cccc(Cl)c2c(=O)n1-c1cccc(-c2ccccc2)c1` [Compound 60a, (S)-3-([1,1′-biphenyl]-3-yl)-2-(1-((6-amino-5-((5-fluoropyridin-2-yl)ethynyl)pyrimidin-4-yl)amino)ethyl)-5-chloroquinazolin-4(3H)-one], the IC50 against PI3Kα is more than 1 µM; on PI3Kδ, less than 100 nM; against PI3Kβ, more than 1 µM; at PI3Kγ, more than 1 µM.
On to `C[C@H](Nc1ncnc(N)c1C#Cc1cnccn1)c1nc2cccc(F)c2c(=O)n1-c1cccc(F)c1` [Compound 101a, (S)-2-(1-((6-amino-5-(pyrazin-2-ylethynyl)pyrimidin-4-yl)amino)ethyl)-5-fluoro-3-(3-fluorophenyl)quinazolin-4(3H)-one], for which the IC50 against PI3Kα was more than 1 µM; on PI3Kδ, less than 100 nM; on PI3Kβ it was more than 1 µM; at PI3Kγ it was more than 1 µM.
Turning to `C[C@H](Nc1ncnc(N)c1C#Cc1cnccn1)c1nc2cccc(C#N)c2c(=O)n1-c1ccccc1` [Compound 55a, (S)-2-(1-((6-amino-5-(pyrazin-2-ylethynyl)pyrimidin-4-yl)amino)ethyl)-4-oxo-3-phenyl-3,4-dihydroquinazoline-5-carbonitrile], the IC50 on PI3Kα is more than 1 µM; on PI3Kδ, less than 100 nM; against PI3Kβ it was more than 1 µM; at PI3Kγ, more than 1 µM.
